We go through 1 compound from US12415184B2, “Device for analysis of cellular motility” (MOTILITYCOUNT APS, priority 2013, dated 2025).

SMILES strings stand for the structures.

For this data set, the system named is sperm cells. Description: effects of detection agents on the motility of sperm cells (microscopic analysis). The data set is classed as cell-based. The following applies: 60 min, ambient temperature; for Cells: cells in total / Cells: motile cells: 50:50 with sperm sample 60/72. As for the experimental part: The possible effects of two detection agents, MTT and crystal violet, on the motility of sperm cells were tested. Stock solutions of MTT and crystal violet of 5 mg/ml and 1 mg/ml, respectively, were prepared, and these were diluted two-fold serially. The detection agent solutions were mixed with sperm samples comprising 60 million motile cells per milliliter and 72 million cells per milliliter in total (denoted 60/72) in a 50:50 ratio and the mixtures were incubated for 60 min at ambient temperature before analysing the cells microscopically.

With `CN(C)c1ccc(C(=C2C=CC(=[N+](C)C)C=C2)c2ccc(N(C)C)cc2)cc1` [Crystal violet, crystal violet], the “Cells: cells in total” value was found to be 56 million per milliliter (Crystal violet 0.125 mg/ml), 56 million per milliliter (Crystal violet 0.25 mg/ml), 43 million per milliliter (Crystal violet 0.5 mg/ml) and 63 million per milliliter (Crystal violet 1 mg/ml). Besides, the “Cells: motile cells” value is, setting by setting: (Crystal violet 0.125 mg/ml) 37 million per milliliter; (Crystal violet 0.25 mg/ml) 32 million per milliliter; (Crystal violet 0.5 mg/ml) 27 million per milliliter; (Crystal violet 1 mg/ml) 40 million per milliliter. Further, the “ratio of motile versus non-motile cells (% motile)” value (concentrations of Table 3) is “not affected”.
